According to US20100233096A1, “METHOD TO PRODUCE HYPERPOLARISED CARBOXYLATES AND SULPHONATES” (priority 2006, published 2010):

How the values were obtained:
[1] = compared with NH4-acetate or Ca-acetate; solubility data available in the literature; cited from earlier work
[2] = T1 relaxation in human full blood; assay type: physicochemical; conditions: human full blood at 37° C.
Description: The amount of alanine, bicarbonate and lactate is dependent on the metabolic status of the tissue under investigation.

| T1 relaxation [2] | SMILES | solubility in water [1] |
| --- | --- | --- |
|  | CC(=O)[O-].[Cs+] [Cs-acetate] | higher solubility in water |
| about 42 s | CC(=O)[13C](=O)O [^13C-pyruvate] |  |
